Source: ChEMBL document CHEMBL1201862, “PubChem BioAssay data set” (2004)
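All cell lines were grown in 96-well plates and treated with compound for 48 hours. The concentration for 50% growth inhibition is given as GI50.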 Active and inactive are the calls of the source. Rule as the data show it: active = GI50 up to about 1.1 µM and inactive = higher.

Experiments:
Test in all cases: inhibition of tumour cell growth, NCI panel, 48 h
CAKI-1 = system: CAKI-1
UACC-62 = system: UACC-62
OVCAR-4 = system: OVCAR-4
UACC-257 = system: UACC-257
786-0 = system: 786-0
SK-MEL-28 = system: SK-MEL-28
SF-539 = system: SF-539
U-251 = system: U-251
HL-60 = system: HL-60
NCI-H23 = system: NCI-H23
MDA-MB-435 = system: MDA-MB-435
SR = system: SR
SNB-19 = system: SNB-19
TK-10 = system: TK-10
CCRF-CEM = system: CCRF-CEM
NCI-H226 = system: NCI-H226
LOX IMVI = system: LOX IMVI
M14 = system: M14
NCI-H460 = system: NCI-H460
OVCAR-3 = system: OVCAR-3
PC-3 = system: PC-3
HOP-92 = system: HOP-92
SF-268 = system: SF-268
HCT-116 = system: HCT-116
HCC 2998 = system: HCC 2998
MCF7 = system: MCF7
SW-620 = system: SW-620
MOLT-4 = system: MOLT-4
RXF 393 = system: RXF 393
MDA-MB-231 = system: MDA-MB-231
RPMI-8226 = system: RPMI-8226
SNB-75 = system: SNB-75
IGROV-1 = system: IGROV-1
Hs-578T = system: Hs-578T
EKVX = system: EKVX
KM12 = system: KM12
OVCAR-5 = system: OVCAR-5
NCI/ADR-RES = system: NCI/ADR-RES
COLO 205 = system: COLO 205
A498 = system: A498
HT-29 = system: HT-29
T47D = system: T47D
OVCAR-8 = system: OVCAR-8
HOP-62 = system: HOP-62
HCT-15 = system: HCT-15
SF-295 = system: SF-295
SK-MEL-5 = system: SK-MEL-5
MDA-N = system: MDA-N
ACHN = system: ACHN
SK-MEL-2 = system: SK-MEL-2
DU-145 = system: DU-145
NCI-H522 = system: NCI-H522
Malme-3M = system: Malme-3M
SN12C = system: SN12C
SK-OV-3 = system: SK-OV-3
K562 = system: K562
A549 = system: A549
UO-31 = system: UO-31

Compound: O=c1c(-c2c(-c3ccccc3)oc3ccc(Cl)cc3c2=O)c(-c2ccccc2)oc2ccc(Cl)cc12
- GI50 (CAKI-1): > 100 µM (inactive)
- GI50 (UACC-62): > 82.8 µM (inactive)
- GI50 (OVCAR-4): > 100 µM (inactive)
- GI50 (UACC-257): > 100 µM (inactive)
- GI50 (786-0): > 100 µM (inactive)
- GI50 (SK-MEL-28): > 100 µM (inactive)
- GI50 (SF-539): > 100 µM (inactive)
- GI50 (U-251): > 100 µM (inactive)
- GI50 (HL-60): 0.0302 µM (active)
- GI50 (NCI-H23): > 100 µM (inactive)
- GI50 (MDA-MB-435): > 100 µM (inactive)
- GI50 (SR): > 100 µM (inactive)
- GI50 (SNB-19): > 100 µM (inactive)
- GI50 (TK-10): > 100 µM (inactive)
- GI50 (CCRF-CEM): > 100 µM (inactive)
- GI50 (NCI-H226): > 100 µM (inactive)
- GI50 (LOX IMVI): > 82.4 µM (inactive)
- GI50 (M14): > 100 µM (inactive)
- GI50 (NCI-H460): > 94.8 µM (inactive)
- GI50 (OVCAR-3): > 100 µM (inactive)
- GI50 (PC-3): > 100 µM (inactive)
- GI50 (HOP-92): > 59.7 µM (inactive)
- GI50 (SF-268): > 49.9 µM (inactive)
- GI50 (HCT-116): > 78.3 µM (inactive)
- GI50 (HCC 2998): > 100 µM (inactive)
- GI50 (MCF7): > 100 µM (inactive)
- GI50 (SW-620): > 100 µM (inactive)
- GI50 (MOLT-4): > 100 µM (inactive)
- GI50 (RXF 393): > 100 µM (inactive)
- GI50 (MDA-MB-231): > 40.3 µM (inactive)
- GI50 (RPMI-8226): > 100 µM (inactive)
- GI50 (SNB-75): > 44.1 µM (inactive)
- GI50 (IGROV-1): > 56.2 µM (inactive)
- GI50 (Hs-578T): > 49.8 µM (inactive)
- GI50 (EKVX): > 43.9 µM (inactive)
- GI50 (KM12): > 100 µM (inactive)
- GI50 (OVCAR-5): > 100 µM (inactive)
- GI50 (NCI/ADR-RES): > 100 µM (inactive)
- GI50 (COLO 205): > 100 µM (inactive)
- GI50 (A498): > 100 µM (inactive)
- GI50 (HT-29): > 100 µM (inactive)
- GI50 (T47D): > 100 µM (inactive)
- GI50 (OVCAR-8): > 74.1 µM (inactive)
- GI50 (HOP-62): > 39.7 µM (inactive)
- GI50 (HCT-15): > 100 µM
- GI50 (SF-295): > 51.8 µM (inactive)
- GI50 (SK-MEL-5): > 100 µM (inactive)
- GI50 (MDA-N): > 100 µM (inactive)
- GI50 (ACHN): > 75.9 µM (inactive)
- GI50 (SK-MEL-2): > 100 µM (inactive)
- GI50 (DU-145): > 100 µM (inactive)
- GI50 (NCI-H522): > 100 µM (inactive)
- GI50 (Malme-3M): > 100 µM (inactive)
- GI50 (SN12C): > 100 µM (inactive)
- GI50 (SK-OV-3): > 51.4 µM (inactive)
- GI50 (K562): > 100 µM (inactive)

Compound: C/C=C/C=C/c1cc2cc3c(c(O)c2c(=O)[nH]1)C1(CC3)C(=O)c2c(O)c3c(c(O)c2C1=O)C(=O)C(OC)=CC3=O (stereo not given)
- GI50 (HL-60): < 0.01 µM (active)
- GI50 (MDA-MB-435): 0.303 µM (active)
- GI50 (LOX IMVI): 0.0205 µM (active)
- GI50 (PC-3): 0.0573 µM (active)
- GI50 (HOP-92): 0.0328 µM (active)
- GI50 (MCF7): 0.0681 µM (active)
- GI50 (MDA-MB-231): 0.203 µM (active)
- GI50 (Hs-578T): 0.132 µM (active)
- GI50 (NCI/ADR-RES): 0.283 µM (active)
- GI50 (T47D): < 0.01 µM (active)
- GI50 (MDA-N): 0.267 µM (active)
- GI50 (DU-145): 0.378 µM (active)

Compound: COC(=O)c1cccc(C)c1C1CN=NC12Cc1c(ccc(C)c1C)C2=O (stereo not given)
- GI50 (CAKI-1): 91.2 µM (inactive)
- GI50 (OVCAR-4): 56.9 µM (inactive)
- GI50 (UACC-257): > 100 µM (inactive)
- GI50 (786-0): 46.2 µM (inactive)
- GI50 (SK-MEL-28): 50 µM (inactive)
- GI50 (SF-539): > 100 µM (inactive)
- GI50 (A549): 40.6 µM (inactive)
- GI50 (U-251): 56 µM (inactive)
- GI50 (HL-60): 12.6 µM (inactive)
- GI50 (NCI-H23): 64.1 µM (inactive)
- GI50 (MDA-MB-435): 35.2 µM (inactive)
- GI50 (SR): 21.3 µM (inactive)
- GI50 (SNB-19): 55 µM (inactive)
- GI50 (TK-10): > 100 µM (inactive)
- GI50 (CCRF-CEM): 26.1 µM (inactive)
- GI50 (NCI-H226): 81.8 µM (inactive)
- GI50 (LOX IMVI): > 100 µM (inactive)
- GI50 (M14): 45.3 µM (inactive)
- GI50 (NCI-H460): 47.6 µM (inactive)
- GI50 (OVCAR-3): 42.2 µM (inactive)
- GI50 (HOP-92): 38.4 µM (inactive)
- GI50 (SF-268): 61.8 µM (inactive)
- GI50 (HCT-116): 22.5 µM (inactive)
- GI50 (HCC 2998): 40.4 µM (inactive)
- GI50 (MCF7): 32.5 µM (inactive)
- GI50 (SW-620): 29.5 µM (inactive)
- GI50 (MOLT-4): 23.6 µM (inactive)
- GI50 (RXF 393): 19.2 µM (inactive)
- GI50 (MDA-MB-231): 26.7 µM (inactive)
- GI50 (RPMI-8226): 17.3 µM (inactive)
- GI50 (SNB-75): 51.5 µM (inactive)
- GI50 (IGROV-1): 76.4 µM (inactive)
- GI50 (Hs-578T): 27.4 µM (inactive)
- GI50 (EKVX): 7.14 µM (inactive)
- GI50 (KM12): 23.3 µM (inactive)
- GI50 (OVCAR-5): > 100 µM (inactive)
- GI50 (NCI/ADR-RES): 33.1 µM (inactive)
- GI50 (A498): 58.1 µM (inactive)
- GI50 (HT-29): 25.8 µM (inactive)
- GI50 (T47D): 5.4 µM (inactive)
- GI50 (OVCAR-8): 30.7 µM (inactive)
- GI50 (HOP-62): 51.6 µM (inactive)
- GI50 (HCT-15): 16.4 µM
- GI50 (SK-MEL-5): 0.102 µM (active)
- GI50 (MDA-N): 33.1 µM (inactive)
- GI50 (UO-31): > 100 µM (inactive)
- GI50 (ACHN): 34.4 µM (inactive)
- GI50 (DU-145): 64.1 µM (inactive)
- GI50 (NCI-H522): 15.8 µM (inactive)
- GI50 (Malme-3M): 22.9 µM (inactive)
- GI50 (SN12C): 13.6 µM (inactive)
- GI50 (K562): 19 µM (inactive)
